# According to PubChem BioAssay AID1963959 (Molecular Pharmacology Branch, DTP, NCI, 2024):
# Test system: T-47D spheroids with HUVEC/MSC, viability
# Assay: Anticancer human tumor T-47D cell line growth inhibition [PI3K];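 note: spheroids exposed to agents for seven days before reading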;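 for viability, T/C: percent of DMSO vehicle control luminescence so 100% = untreated growth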
# Details: for IC50: curve of first compound; for viability, T/C: stronger effect = lower value
# Method in brief: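 Complex 3D spheroids (cancer cells + endothelial HUVEC + mesenchymal stem cells); drug pairs of targeted agent x inavolisib/alpelisib/duvelisib/copanlisib; half-log series from ~Cmax, max 10 microM if Cmax unknown; endpoint viability.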
# [1] = second compound 0.00316 µM, first compound 0.0316 µM
# [2] = second compound 0.00316 µM, first compound 0.1 µM
# [3] = second compound 0.00316 µM, first compound 0.316 µM
# [4] = second compound 0.00316 µM, first compound 1 µM
# [5] = second compound 0.01 µM, first compound 0.0316 µM
# [6] = second compound 0.01 µM, first compound 0.1 µM
# [7] = second compound 0.01 µM, first compound 0.316 µM
# [8] = second compound 0.01 µM, first compound 1 µM
# [9] = second compound 0.0316 µM, first compound 0.0316 µM
# [10] = second compound 0.0316 µM, first compound 0.1 µM
# [11] = second compound 0.0316 µM, first compound 0.316 µM
# [12] = second compound 0.0316 µM, first compound 1 µM
# [13] = second compound 0.0316 µM, first compound 3.16 µM
# [14] = second compound 0.0316 µM, first compound 10 µM
# [15] = second compound 0.1 µM, first compound 0.0316 µM
# [16] = second compound 0.1 µM, first compound 0.1 µM
# [17] = second compound 0.1 µM, first compound 0.316 µM
# [18] = second compound 0.1 µM, first compound 1 µM
# [19] = second compound 0.1 µM, first compound 3.16 µM
# [20] = second compound 0.1 µM, first compound 10 µM
# [21] = second compound 0.316 µM, first compound 0.0316 µM
# [22] = second compound 0.316 µM, first compound 0.1 µM
# [23] = second compound 0.316 µM, first compound 0.316 µM
# [24] = second compound 0.316 µM, first compound 1 µM
# [25] = second compound 0.316 µM, first compound 3.16 µM
# [26] = second compound 0.316 µM, first compound 10 µM
# [27] = second compound 1 µM, first compound 0.0316 µM
# [28] = second compound 1 µM, first compound 0.1 µM
# [29] = second compound 1 µM, first compound 0.316 µM
# [30] = second compound 1 µM, first compound 1 µM
# [31] = second compound 1 µM, first compound 3.16 µM
# [32] = second compound 1 µM, first compound 10 µM
compound,measurement,setting,value
CC1(C)CCC(Nc2ncc(C(F)(F)F)c(-c3c[nH]c4c(P(C)(C)=O)c(C#N)ccc34)n2)CN1 (stereo unspecified) + COc1c(OCCCN2CCOCC2)ccc2c3n(c(=NC(=O)c4cnc(N)nc4)nc12)CCN3,IC50,second compound 0.00316 µM,> 10000 nM
same,IC50,second compound 0.01 µM,> 10000 nM
same,IC50,second compound 0.0316 µM,< 31.6 nM
same,IC50,second compound 0.1 µM,< 31.6 nM
same,IC50,second compound 0.316 µM,< 31.6 nM
same,IC50,second compound 1 µM,< 31.6 nM
same,"viability, T/C",[1],70.8%
same,"viability, T/C",[2],60.4%
same,"viability, T/C",[3],68%
same,"viability, T/C",[4],74.5%
same,"viability, T/C","second compound 0.00316 µM, first compound 3.16 µM",77.7%
same,"viability, T/C","second compound 0.00316 µM, first compound 10 µM",57.5%
same,"viability, T/C",[5],67.6%
same,"viability, T/C",[6],62.4%
same,"viability, T/C",[7],55.2%
same,"viability, T/C",[8],50.2%
same,"viability, T/C","second compound 0.01 µM, first compound 3.16 µM",73.8%
same,"viability, T/C","second compound 0.01 µM, first compound 10 µM",46%
same,"viability, T/C",[9],44.3%
same,"viability, T/C",[10],42.6%
same,"viability, T/C",[11],42.8%
same,"viability, T/C",[12],38.8%
same,"viability, T/C",[13],46.9%
same,"viability, T/C",[14],14.1%
same,"viability, T/C",[15],28%
same,"viability, T/C",[16],33.8%
same,"viability, T/C",[17],28.8%
same,"viability, T/C",[18],29.8%
same,"viability, T/C",[19],26.5%
same,"viability, T/C",[20],8.25%
same,"viability, T/C",[21],20%
same,"viability, T/C",[22],24.4%
same,"viability, T/C",[23],15.6%
same,"viability, T/C",[24],19.1%
same,"viability, T/C",[25],17.4%
same,"viability, T/C",[26],3.95%
same,"viability, T/C",[27],8.6%
same,"viability, T/C",[28],12.8%
same,"viability, T/C",[29],8.27%
same,"viability, T/C",[30],7.59%
same,"viability, T/C",[31],10.4%
same,"viability, T/C",[32],2.66%
CC(Cn1ccc(-c2ccc(C#N)c(Cl)c2)n1)NC(=O)c1cc(C(C)O)[nH]n1 (stereo unspecified) + Cc1nc(NC(=O)N2CCCC2C(N)=O)sc1-c1ccnc(C(C)(C)C(F)(F)F)c1,IC50,second compound 0.0316 µM,> 10000 nM
same,IC50,second compound 0.1 µM,> 10000 nM
same,IC50,second compound 0.316 µM,> 10000 nM
same,IC50,second compound 1 µM,> 10000 nM
same,IC50,second compound 3.16 µM,> 10000 nM
same,IC50,second compound 10 µM,< 31.6 nM
same,"viability, T/C",[9],97%
same,"viability, T/C",[10],103%
same,"viability, T/C",[11],118%
same,"viability, T/C",[12],84%
same,"viability, T/C",[13],88.8%
same,"viability, T/C",[14],63.6%
same,"viability, T/C",[15],109%
same,"viability, T/C",[16],88.2%
same,"viability, T/C",[17],91.8%
same,"viability, T/C",[18],90.9%
same,"viability, T/C",[19],79.5%
same,"viability, T/C",[20],67.9%
same,"viability, T/C",[21],100%
same,"viability, T/C",[22],101%
same,"viability, T/C",[23],93.8%
same,"viability, T/C",[24],96.8%
same,"viability, T/C",[25],85.7%
same,"viability, T/C",[26],66.6%
same,"viability, T/C",[27],95.5%
same,"viability, T/C",[28],95.8%
same,"viability, T/C",[29],84.4%
same,"viability, T/C",[30],87.6%
same,"viability, T/C",[31],85%
same,"viability, T/C",[32],63.2%
same,"viability, T/C","second compound 3.16 µM, first compound 0.0316 µM",82.8%
same,"viability, T/C","second compound 3.16 µM, first compound 0.1 µM",73.4%
same,"viability, T/C","second compound 3.16 µM, first compound 0.316 µM",61%
same,"viability, T/C","second compound 3.16 µM, first compound 1 µM",65.8%
same,"viability, T/C","second compound 3.16 µM, first compound 3.16 µM",63.1%
same,"viability, T/C","second compound 3.16 µM, first compound 10 µM",50.4%
same,"viability, T/C","second compound 10 µM, first compound 0.0316 µM",36%
same,"viability, T/C","second compound 10 µM, first compound 0.1 µM",42.3%
same,"viability, T/C","second compound 10 µM, first compound 0.316 µM",44.2%
same,"viability, T/C","second compound 10 µM, first compound 1 µM",45.5%
same,"viability, T/C","second compound 10 µM, first compound 3.16 µM",36.8%
same,"viability, T/C","second compound 10 µM, first compound 10 µM",37.9%
CCN1CCN(Cc2ccc(Nc3ncc(F)c(-c4cc(F)c5nc(C)n(C(C)C)c5c4)n3)nc2)CC1 + CC(Nc1ccc2c(c1)OCCn1cc(N3C(=O)OCC3C(F)F)nc1-2)C(N)=O,IC50,second compound 0.00316 µM,> 1000 nM
same,IC50,second compound 0.01 µM,> 1000 nM
same,IC50,second compound 0.0316 µM,> 1000 nM
same,IC50,second compound 0.1 µM,> 1000 nM
same,IC50,second compound 0.316 µM,17.3 nM
same,IC50,second compound 1 µM,< 3.16 nM
same,"viability, T/C","second compound 0.00316 µM, first compound 0.00316 µM",107%
same,"viability, T/C","second compound 0.00316 µM, first compound 0.01 µM",101%
same,"viability, T/C",[1],91%
same,"viability, T/C",[2],95.5%
same,"viability, T/C",[3],91.6%
same,"viability, T/C",[4],91.2%
same,"viability, T/C","second compound 0.01 µM, first compound 0.00316 µM",93%
same,"viability, T/C","second compound 0.01 µM, first compound 0.01 µM",101%
same,"viability, T/C",[5],94.4%
same,"viability, T/C",[6],86.2%
same,"viability, T/C",[7],76.5%
same,"viability, T/C",[8],82.5%
same,"viability, T/C","second compound 0.0316 µM, first compound 0.00316 µM",88.2%
same,"viability, T/C","second compound 0.0316 µM, first compound 0.01 µM",98%
same,"viability, T/C",[9],81.8%
same,"viability, T/C",[10],90%
same,"viability, T/C",[11],72.6%
same,"viability, T/C",[12],91%
same,"viability, T/C","second compound 0.1 µM, first compound 0.00316 µM",83.3%
same,"viability, T/C","second compound 0.1 µM, first compound 0.01 µM",90.6%
same,"viability, T/C",[15],71.5%
same,"viability, T/C",[16],58.9%
same,"viability, T/C",[17],56.5%
same,"viability, T/C",[18],73.8%
same,"viability, T/C","second compound 0.316 µM, first compound 0.00316 µM",58.2%
same,"viability, T/C","second compound 0.316 µM, first compound 0.01 µM",49.9%
same,"viability, T/C",[21],51.2%
same,"viability, T/C",[22],48.8%
same,"viability, T/C",[23],47%
same,"viability, T/C",[24],49.1%
same,"viability, T/C","second compound 1 µM, first compound 0.00316 µM",49.7%
same,"viability, T/C","second compound 1 µM, first compound 0.01 µM",36.8%
same,"viability, T/C",[27],35.7%
same,"viability, T/C",[28],32.5%
same,"viability, T/C",[29],37.2%
same,"viability, T/C",[30],44.8%
